Assay results from US9850225B2, “Compounds useful as immunomodulators” (BRISTOL-MYERS SQUIBB COMPANY, priority 2014, dated 2017).

What follows are compounds tested against PD-1/PD-L1 interaction (PD-1-Ig / PD-L1-His) (Homo sapiens (Human), UniProt Q9NZQ7) (assay: PD-1/PD-L1 Homogenous Time-Resolved Fluorescence (HTRF) binding assay). Details: PD-1/PD-L1 HTRF binding assay; value given as range class; read-out: Range or IC50.
PD-1/PD-L1 interaction (PD-1-Ig / PD-L1-His), sequence (Q9NZQ7 other isoform, or with tags, fused parts or gaps): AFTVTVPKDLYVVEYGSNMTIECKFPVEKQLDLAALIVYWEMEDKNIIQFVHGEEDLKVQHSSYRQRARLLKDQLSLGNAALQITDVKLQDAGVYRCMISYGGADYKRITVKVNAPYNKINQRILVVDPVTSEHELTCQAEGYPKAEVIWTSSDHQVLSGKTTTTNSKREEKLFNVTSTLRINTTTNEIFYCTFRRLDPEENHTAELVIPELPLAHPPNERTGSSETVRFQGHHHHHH
Method in brief: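 Human PD-L1-His (10 nM final) was pre-incubated with inhibitor for 15 min, then PD-1-Ig (20 nM final) was added for a further 15 min in dPBS with 0.1% BSA and 0.05% Tween-20. Binding was detected by HTRF using Eu-cryptate anti-Ig (1 nM) and APC anti-His (20 nM).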
With `CCc1cc(CNCCNC(C)=O)c(OCc2cccc(C#N)c2)cc1OCc1cccc(-c2ccc3c(c2)OCCO3)c1C` [Example 1289, N-(2-(2-(3-cyanobenzyloxy)-4-(3-(2,3-dihydrobenzo[b][1,4]dioxin-6-yl)-2-methylbenzyloxy)-5-ethylbenzylamino)ethyl)acetamide] the IC50 was 0.6 to 10 nM. Work on `CC(=O)NCCNCc1ccc(OCc2cccc(-c3ccccc3)c2C)cc1OCc1ccc(C(C)=O)cc1` [Example 1040, N-(2-((2-((4-acetylbenzyl)oxy)-4-((2-methyl-[1,1′-biphenyl]-3-yl)methoxy)benzyl)amino)ethyl)acetamide] yielded an IC50 of 100 to 20000 nM. `Cc1c(COc2cc(OCc3cccc(C#N)c3)c(CN(C)[C@@H](CO)C(=O)O)cc2Cl)cccc1-c1ccc2c(c1)OCCO2` [Example 1183, (S)-2-((5-chloro-2-((3-cyanobenzyl)oxy)-4-((3-(2,3-dihydrobenzo[b][1,4]dioxin-6-yl)-2-methylbenzyl)oxy)benzyl)(methyl)amino)-3-hydroxypropanoic acid] gave an IC50 of 0.6 to 10 nM. With `Cc1cc(CN[C@@](C)(CO)C(=O)O)c(OCc2cncc(C#N)c2)cc1OCc1cccc(-c2ccc3c(c2)OCCO3)c1Cl` [Example 1154, (S)-2-(4-(2-chloro-3-(2,3-dihydrobenzo[b][1,4]dioxin-6-yl)benzyloxy)-2-((5-cyanopyridin-3-yl)methoxy)-5-methylbenzylamino)-3-hydroxy-2-methylpropanoic acid] the IC50 was 0.6 to 10 nM. `Cc1cc(OCc2cccc(-c3ccc4c(c3)OCCO4)c2C)cc(OCc2cncc(C#N)c2)c1CN[C@@](C)(CO)C(=O)O` [Example 1010, (S)-2-(2-((5-cyanopyridin-3-yl)methoxy)-4-(3-(2,3-dihydrobenzo[b][1,4]dioxin-6-yl)-2-methylbenzyloxy)-6-methylbenzylamino)-3-hydroxy-2-methylpropanoic acid] was tested, and the IC50 was 0.6 to 10 nM. For `CC(=O)NCCNCc1ccc(OCc2cccc(-c3ccccc3)c2C)cc1OCc1ccc2c(cnn2C2CCCCO2)c1` (stereo not shown) [Example 1099, N-(2-((4-((2-methyl-[1,1′-biphenyl]-3-yl)methoxy)-2-((1-(tetrahydro-2H-pyran-2-yl)-1H-indazol-5-yl)methoxy)benzyl)amino)ethyl)acetamide], the IC50 was 100 to 20000 nM. `Cc1c(COc2ccc(CN[C@@](C)(CO)C(=O)O)c(OCc3cccc(C#N)c3)c2)cccc1-c1ccc2c(c1)OCCO2` [Example 1128, (S)-2-((2-((3-cyanobenzyl)oxy)-4-((3-(2,3-dihydrobenzo[b][1,4]dioxin-6-yl)-2-methylbenzyl)oxy)benzyl)amino)-3-hydroxy-2-methylpropanoic acid] showed an IC50 of 0.6 to 10 nM. In the case of `CCOC(=O)c1cncc(COc2cc(OCc3cccc(-c4ccc5c(c4)OCCO5)c3C)c(Cl)cc2CN[C@@](C)(CO)C(=O)O)c1` [Example 2000, (S)-2-((5-chloro-4-((3-(2,3-dihydrobenzo[b][1,4]dioxin-6-yl)-2-methylbenzyl)oxy)-2-((5-(ethoxycarbonyl)pyridin-3-yl)methoxy)benzyl)amino)-3-hydroxy-2-methylpropanoic acid], the IC50 is reported as 100 to 20000 nM. `CC(=O)NCCNCc1ccc(OCc2cccc(-c3ccccc3)c2C)cc1OCc1ccc(C(F)(F)F)cc1` [Example 1052, N-(2-((4-((2-methyl-[1,1′-biphenyl]-3-yl)methoxy)-2-((4-(trifluoromethyl)benzyl)oxy)benzyl)amino)ethyl)acetamide] gave an IC50 of 100 to 20000 nM. With `Cc1cc(OCc2cccc(-c3ccc4c(c3)OCCO4)c2C)cc(OCc2cncc(C#N)c2)c1CNC[C@@H](O)CC(=O)O` [Example 1006, (S)-4-(2-((5-cyanopyridin-3-yl)methoxy)-4-(3-(2,3-dihydrobenzo[b][1,4]dioxin-6-yl)-2-methylbenzyloxy)-6-methylbenzylamino)-3-hydroxybutanoic acid] the IC50 was 0.6 to 10 nM. For `Cc1cc(CN[C@H](CO)C(=O)O)c(OCc2cncc(C#N)c2)cc1OCc1cccc(-c2ccc3c(c2)OCCO3)c1C#N` [Example 1310, (R)-2-(4-(2-cyano-3-(2,3-dihydrobenzo[b][1,4]dioxin-6-yl)benzyloxy)-2-((5-cyanopyridin-3-yl)methoxy)-5-methylbenzylamino)-3-hydroxypropanoic acid], the IC50 was 0.6 to 10 nM. With `CC(=O)NCCNCc1ccc(OCc2cccc(-c3ccccc3)c2C)cc1OCc1ccccc1` [Example 1024, N-(2-((2-(benzyloxy)-4-((2-methyl-[1,1′-biphenyl]-3-yl)methoxy)benzyl)amino)ethyl)acetamide] the IC50 was 100 to 20000 nM. `Cc1c(C#N)cncc1COc1cc(OCc2cccc(-c3ccccc3)c2C)ccc1CN[C@H](CO)C(=O)O` [Example 1324, (R)-2-(2-((5-cyano-4-methylpyridin-3-yl)methoxy)-4-((2-methylbiphenyl-3-yl)methoxy)benzylamino)-3-hydroxypropanoic acid] was tested, and the IC50 was 10 to 100 nM. With `COc1cc(OCc2cccc(-c3ccc4c(c3)OCCO4)c2C)cc(OCc2cccc(C#N)c2)c1CN[C@H](CO)C(=O)O` [Example 1139, (R)-2-((2-((3-cyanobenzyl)oxy)-4-((3-(2,3-dihydrobenzo[b][1,4]dioxin-6-yl)-2-methylbenzyl)oxy)-6-methoxybenzyl)amino)-3-hydroxypropanoic acid] the IC50 was 0.6 to 10 nM. Compound `CC(=O)NCCNCc1ccc(OCc2cccc(-c3ccccc3)c2C)cc1OCc1cc(C)ccc1F` [Example 1094, N-(2-((2-((2-fluoro-5-methylbenzyl)oxy)-4-((2-methyl-[1,1′-biphenyl]-3-yl)methoxy)benzyl)amino)ethyl)acetamide] has an IC50 of 100 to 20000 nM. `Cc1c(COc2cc(OCc3cncc(C#N)c3)c(CN[C@](C)(CO)C(=O)O)cc2Br)cccc1-c1ccc2c(c1)OCCO2` [Example 1320, (R)-2-(5-bromo-2-((5-cyanopyridin-3-yl)methoxy)-4-(3-(2,3-dihydrobenzo[b][1,4]dioxin-6-yl)-2-methylbenzyloxy)benzylamino)-3-hydroxy-2-methylpropanoic acid] was tested, and the IC50 was 0.6 to 10 nM. For `COc1cc(COc2cc(OCc3cccc(-c4ccc5c(c4)OCCO5)c3C)c(Cl)cc2CN2CCCC[C@H]2C(=O)O)ccn1` [Example 3017, (S)-1-(5-chloro-4-((3-(2,3-dihydrobenzo[b][1,4]dioxin-6-yl)-2-methylbenzyl)oxy)-2-((2-methoxypyridin-4-yl)methoxy)benzyl)piperidine-2-carboxylic acid], the IC50 was 10 to 100 nM. With `Cc1c(COc2cc(OCc3cccc(C#N)c3)c(CN[C@H](Cc3cscn3)C(=O)O)cc2Cl)cccc1-c1ccc2c(c1)OCCO2` [Example 1206, (R)-2-((5-chloro-2-((3-cyanobenzyl)oxy)-4-((3-(2,3-dihydrobenzo[b][1,4]dioxin-6-yl)-2-methylbenzyl)oxy)benzyl)amino)-3-(thiazol-4-yl)propanoic acid] the IC50 was 0.6 to 10 nM. In the case of `Cc1c(COc2ccc(CN[C@H](CO)C(=O)O)c(OCCCCC#N)c2)cccc1-c1ccccc1` [Example 1143, (R)-2-((2-(4-cyanobutoxy)-4-((2-methyl-[1,1′-biphenyl]-3-yl)methoxy)benzyl)amino)-3-hydroxypropanoic acid], the IC50 is reported as 0.6 to 10 nM. `Cc1c(COc2cc(OCc3cccc(C#N)c3)c(CNC(Cc3c[nH]c4ncccc34)C(=O)O)cc2Cl)cccc1-c1ccc2c(c1)OCCO2` (stereo not shown) [Example 1185, 2-((5-chloro-2-((3-cyanobenzyl)oxy)-4-((3-(2,3-dihydrobenzo[b][1,4]dioxin-6-yl)-2-methylbenzyl)oxy)benzyl)amino)-3-(1H-pyrrolo[2,3-b]pyridin-3-yl)propanoic acid] gave an IC50 of 10 to 100 nM. Work on `Cc1c(COc2ccc(CNC[C@@H](O)CC(=O)O)c(OCc3ccc(F)c(C#N)c3)c2)cccc1-c1ccccc1` [Example 1331, (S)-4-((2-((3-cyano-4-fluorobenzyl)oxy)-4-((2-methyl-[1,1′-biphenyl]-3-yl)methoxy)benzyl)amino)-3-hydroxybutanoic acid] yielded an IC50 of 0.6 to 10 nM. `Cc1c(COc2cc(OCc3cccc(C#N)c3)c(CN[C@@H](CC#N)C(=O)O)cc2Cl)cccc1-c1ccc2c(c1)OCCO2` [Example 1180, (S)-2-((5-chloro-2-((3-cyanobenzyl)oxy)-4-((3-(2,3-dihydrobenzo[b][1,4]dioxin-6-yl)-2-methylbenzyl)oxy)benzyl)amino)-3-cyanopropanoic acid] gave an IC50 of 10 to 100 nM. `CC(=O)NCCNCc1ccc(OCc2cccc(-c3ccccc3)c2C)cc1OCc1cccc(Cl)c1F` [Example 1072, N-(2-((2-((3-chloro-2-fluorobenzyl)oxy)-4-((2-methyl-[1,1′-biphenyl]-3-yl)methoxy)benzyl)amino)ethyl)acetamide] showed an IC50 of 100 to 20000 nM. `COc1ccc(C(=O)O)cc1COc1cc(OCc2cccc(-c3ccc4c(c3)OCCO4)c2C)c(Cl)cc1CN1CCCC[C@H]1C(=O)O` [Example 3027, (S)-1-(2-((5-carboxy-2-methoxybenzyl)oxy)-5-chloro-4-((3-(2,3-dihydrobenzo[b][1,4]dioxin-6-yl)-2-methylbenzyl)oxy)benzyl)piperidine-2-carboxylic acid] was tested, and the IC50 was 100 to 20000 nM. Compound `Cc1c(COc2cc(OCc3cncc(C#N)c3)c(CN[C@](C)(CO)C(=O)O)cc2F)cccc1-c1ccc2c(c1)OCCO2` [Example 3001] has an IC50 of 0.6 to 10 nM. With `Cc1c(COc2cc(OCc3cncc(C#N)c3)c(CN3C[C@@H](O)CC[C@H]3C(=O)O)cc2Cl)cccc1-c1ccc2c(c1)OCCO2` [Example 2007, (2S,5S)-1-(5-chloro-2-((5-cyanopyridin-3-yl)methoxy)-4-((3-(2,3-dihydrobenzo[b][1,4]dioxin-6-yl)-2-methylbenzyl)oxy)benzyl)-5-hydroxypiperidine-2-carboxylic acid] the IC50 was 0.6 to 10 nM. With `Cc1c(COc2ccc(CN[C@@](C)(CO)C(=O)O)c(OCc3cccc(C#N)c3)c2)cccc1-c1ccccc1` [Example 1019, (S)-2-((2-((3-cyanobenzyl)oxy)-4-((2-methyl-[1,1′-biphenyl]-3-yl)methoxy)benzyl)amino)-3-hydroxy-2-methylpropanoic acid] the IC50 was 0.6 to 10 nM. `CC(=O)NCCNCc1ccc(OCc2cccc(-c3ccccc3)c2C)cc1OCc1ccccc1C#N` [Example 1055, N-(2-((2-((2-cyanobenzyl)oxy)-4-((2-methyl-[1,1′-biphenyl]-3-yl)methoxy)benzyl)amino)ethyl)acetamide] showed an IC50 of 100 to 20000 nM.
